According to ChEMBL document CHEMBL1201862, “PubChem BioAssay data set” (2004):
Active and inactive are the calls of the source.

Assays:
[1] = molecular target: T1, Sentrin-specific protease 8 (Homo sapiens, UniProt Q96LD8); test: SENP8 protease inhibitors, SAR follow-up, biochemical, luminescence (AID 504501); format: functional
T1 sequence (Q96LD8 whole entry): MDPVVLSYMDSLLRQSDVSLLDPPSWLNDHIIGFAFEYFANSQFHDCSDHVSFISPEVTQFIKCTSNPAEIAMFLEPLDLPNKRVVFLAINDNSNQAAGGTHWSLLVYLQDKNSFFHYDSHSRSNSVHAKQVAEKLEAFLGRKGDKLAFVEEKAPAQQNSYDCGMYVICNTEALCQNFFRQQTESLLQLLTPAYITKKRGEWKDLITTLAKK

[2] = molecular target: T2, Caspase-3 (Homo sapiens, UniProt P42574); test: SAR Analysis of small molecule inhibitors of Sentrin-specific proteases (SENPs) using a Caspase-3 Selectivity assay. [Related pubchem assays (depositor defined):AID2540, AID2599, AID434973, AID489001]; format: functional
T2 sequence (P42574 whole entry): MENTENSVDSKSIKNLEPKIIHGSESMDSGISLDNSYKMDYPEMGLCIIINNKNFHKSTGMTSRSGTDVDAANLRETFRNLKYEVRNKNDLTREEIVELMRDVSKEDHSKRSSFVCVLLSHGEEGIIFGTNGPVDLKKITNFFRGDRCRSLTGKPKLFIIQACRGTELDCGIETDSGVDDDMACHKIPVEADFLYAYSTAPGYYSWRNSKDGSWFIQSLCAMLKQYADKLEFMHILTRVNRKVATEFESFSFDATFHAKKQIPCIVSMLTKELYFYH

[3] = molecular target: T3, Sentrin-specific protease 6 (Homo sapiens, UniProt Q9GZR1); test: SAR Analysis of small molecule inhibitors of Sentrin-specific protease 6 (SENP6) using a Luminescent assay. [Related pubchem assays (depositor defined):AID2582, AID2599]; format: functional
T3 sequence (Q9GZR1 whole entry): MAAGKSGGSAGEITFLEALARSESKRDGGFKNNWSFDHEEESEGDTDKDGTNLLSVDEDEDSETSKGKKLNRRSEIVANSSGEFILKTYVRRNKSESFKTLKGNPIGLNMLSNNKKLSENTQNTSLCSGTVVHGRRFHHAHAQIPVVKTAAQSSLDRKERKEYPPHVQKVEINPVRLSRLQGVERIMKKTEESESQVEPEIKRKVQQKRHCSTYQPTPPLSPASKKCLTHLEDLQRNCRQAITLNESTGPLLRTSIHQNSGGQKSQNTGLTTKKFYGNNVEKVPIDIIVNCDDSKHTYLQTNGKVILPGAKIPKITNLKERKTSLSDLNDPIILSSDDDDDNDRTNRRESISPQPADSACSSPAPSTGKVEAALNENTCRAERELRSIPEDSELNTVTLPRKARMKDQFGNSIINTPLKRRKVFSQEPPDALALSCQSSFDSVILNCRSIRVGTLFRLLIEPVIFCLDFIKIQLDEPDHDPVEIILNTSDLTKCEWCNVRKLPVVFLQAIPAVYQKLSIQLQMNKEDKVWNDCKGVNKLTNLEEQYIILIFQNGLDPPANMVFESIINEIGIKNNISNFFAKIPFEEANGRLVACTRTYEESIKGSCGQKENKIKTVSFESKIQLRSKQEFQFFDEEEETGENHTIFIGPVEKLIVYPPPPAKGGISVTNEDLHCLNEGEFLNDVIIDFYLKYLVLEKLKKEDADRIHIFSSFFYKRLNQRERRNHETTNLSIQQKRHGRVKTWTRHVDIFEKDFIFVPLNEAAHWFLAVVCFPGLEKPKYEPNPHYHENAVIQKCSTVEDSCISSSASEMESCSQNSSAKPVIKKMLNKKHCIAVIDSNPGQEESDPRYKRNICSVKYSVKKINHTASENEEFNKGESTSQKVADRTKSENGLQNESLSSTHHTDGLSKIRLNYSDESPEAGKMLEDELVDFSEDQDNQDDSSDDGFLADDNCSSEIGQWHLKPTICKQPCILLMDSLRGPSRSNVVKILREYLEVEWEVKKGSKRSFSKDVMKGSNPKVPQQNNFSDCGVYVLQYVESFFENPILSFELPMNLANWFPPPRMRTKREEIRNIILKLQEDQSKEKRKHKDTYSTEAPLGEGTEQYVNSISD

[4] = molecular target: T4, Sentrin-specific protease 7 (Homo sapiens, UniProt Q9BQF6); test: SENP7 protease inhibitors, SAR follow-up, biochemical, luminescence (AID 504497); format: functional
T4 sequence (Q9BQF6 whole entry): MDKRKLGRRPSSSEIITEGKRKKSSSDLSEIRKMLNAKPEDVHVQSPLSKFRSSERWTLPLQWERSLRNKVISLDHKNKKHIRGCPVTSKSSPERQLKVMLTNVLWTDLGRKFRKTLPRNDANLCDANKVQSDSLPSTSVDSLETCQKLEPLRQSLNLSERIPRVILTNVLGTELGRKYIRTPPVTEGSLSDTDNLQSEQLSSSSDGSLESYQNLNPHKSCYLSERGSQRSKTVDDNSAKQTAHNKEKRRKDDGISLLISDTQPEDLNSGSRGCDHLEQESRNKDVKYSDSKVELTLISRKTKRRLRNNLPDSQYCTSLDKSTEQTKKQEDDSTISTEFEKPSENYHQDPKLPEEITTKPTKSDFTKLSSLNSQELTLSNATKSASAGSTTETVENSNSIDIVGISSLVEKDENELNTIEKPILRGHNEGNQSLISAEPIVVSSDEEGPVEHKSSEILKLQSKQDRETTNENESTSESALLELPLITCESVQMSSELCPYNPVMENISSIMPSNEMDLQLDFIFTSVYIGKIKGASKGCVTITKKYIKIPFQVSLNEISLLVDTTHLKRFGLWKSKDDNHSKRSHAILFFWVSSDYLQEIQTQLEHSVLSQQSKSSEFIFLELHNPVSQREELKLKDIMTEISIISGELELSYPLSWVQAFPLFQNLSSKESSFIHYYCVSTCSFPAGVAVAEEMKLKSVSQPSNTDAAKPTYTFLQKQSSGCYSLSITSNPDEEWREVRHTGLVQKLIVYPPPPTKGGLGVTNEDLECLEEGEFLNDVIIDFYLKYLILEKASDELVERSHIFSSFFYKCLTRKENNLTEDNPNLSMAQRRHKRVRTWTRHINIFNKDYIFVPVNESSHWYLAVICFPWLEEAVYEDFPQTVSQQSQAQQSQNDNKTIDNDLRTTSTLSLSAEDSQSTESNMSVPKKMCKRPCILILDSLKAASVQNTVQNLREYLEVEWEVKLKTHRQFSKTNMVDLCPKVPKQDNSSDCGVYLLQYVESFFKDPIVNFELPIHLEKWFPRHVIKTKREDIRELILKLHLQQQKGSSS

[5] = test system: Streptococcus sp. 'group A'; test: growth inhibition of control SK(-) GAS strain, dose response, counter-screen for streptokinase expression inhibitor project, luminescence, kanamycin, BacTiterGlo, confirmation (AID 1900); format: functional, organism-based
[6] = molecular target: T5, Voltage-gated N-type calcium channel alpha-1B subunit/Amyloid beta A4 precursor protein-binding family A member 1 (Homo sapiens, UniProt Q00975+Q02410); format: protein assay
T5 sequence (Q00975 whole entry): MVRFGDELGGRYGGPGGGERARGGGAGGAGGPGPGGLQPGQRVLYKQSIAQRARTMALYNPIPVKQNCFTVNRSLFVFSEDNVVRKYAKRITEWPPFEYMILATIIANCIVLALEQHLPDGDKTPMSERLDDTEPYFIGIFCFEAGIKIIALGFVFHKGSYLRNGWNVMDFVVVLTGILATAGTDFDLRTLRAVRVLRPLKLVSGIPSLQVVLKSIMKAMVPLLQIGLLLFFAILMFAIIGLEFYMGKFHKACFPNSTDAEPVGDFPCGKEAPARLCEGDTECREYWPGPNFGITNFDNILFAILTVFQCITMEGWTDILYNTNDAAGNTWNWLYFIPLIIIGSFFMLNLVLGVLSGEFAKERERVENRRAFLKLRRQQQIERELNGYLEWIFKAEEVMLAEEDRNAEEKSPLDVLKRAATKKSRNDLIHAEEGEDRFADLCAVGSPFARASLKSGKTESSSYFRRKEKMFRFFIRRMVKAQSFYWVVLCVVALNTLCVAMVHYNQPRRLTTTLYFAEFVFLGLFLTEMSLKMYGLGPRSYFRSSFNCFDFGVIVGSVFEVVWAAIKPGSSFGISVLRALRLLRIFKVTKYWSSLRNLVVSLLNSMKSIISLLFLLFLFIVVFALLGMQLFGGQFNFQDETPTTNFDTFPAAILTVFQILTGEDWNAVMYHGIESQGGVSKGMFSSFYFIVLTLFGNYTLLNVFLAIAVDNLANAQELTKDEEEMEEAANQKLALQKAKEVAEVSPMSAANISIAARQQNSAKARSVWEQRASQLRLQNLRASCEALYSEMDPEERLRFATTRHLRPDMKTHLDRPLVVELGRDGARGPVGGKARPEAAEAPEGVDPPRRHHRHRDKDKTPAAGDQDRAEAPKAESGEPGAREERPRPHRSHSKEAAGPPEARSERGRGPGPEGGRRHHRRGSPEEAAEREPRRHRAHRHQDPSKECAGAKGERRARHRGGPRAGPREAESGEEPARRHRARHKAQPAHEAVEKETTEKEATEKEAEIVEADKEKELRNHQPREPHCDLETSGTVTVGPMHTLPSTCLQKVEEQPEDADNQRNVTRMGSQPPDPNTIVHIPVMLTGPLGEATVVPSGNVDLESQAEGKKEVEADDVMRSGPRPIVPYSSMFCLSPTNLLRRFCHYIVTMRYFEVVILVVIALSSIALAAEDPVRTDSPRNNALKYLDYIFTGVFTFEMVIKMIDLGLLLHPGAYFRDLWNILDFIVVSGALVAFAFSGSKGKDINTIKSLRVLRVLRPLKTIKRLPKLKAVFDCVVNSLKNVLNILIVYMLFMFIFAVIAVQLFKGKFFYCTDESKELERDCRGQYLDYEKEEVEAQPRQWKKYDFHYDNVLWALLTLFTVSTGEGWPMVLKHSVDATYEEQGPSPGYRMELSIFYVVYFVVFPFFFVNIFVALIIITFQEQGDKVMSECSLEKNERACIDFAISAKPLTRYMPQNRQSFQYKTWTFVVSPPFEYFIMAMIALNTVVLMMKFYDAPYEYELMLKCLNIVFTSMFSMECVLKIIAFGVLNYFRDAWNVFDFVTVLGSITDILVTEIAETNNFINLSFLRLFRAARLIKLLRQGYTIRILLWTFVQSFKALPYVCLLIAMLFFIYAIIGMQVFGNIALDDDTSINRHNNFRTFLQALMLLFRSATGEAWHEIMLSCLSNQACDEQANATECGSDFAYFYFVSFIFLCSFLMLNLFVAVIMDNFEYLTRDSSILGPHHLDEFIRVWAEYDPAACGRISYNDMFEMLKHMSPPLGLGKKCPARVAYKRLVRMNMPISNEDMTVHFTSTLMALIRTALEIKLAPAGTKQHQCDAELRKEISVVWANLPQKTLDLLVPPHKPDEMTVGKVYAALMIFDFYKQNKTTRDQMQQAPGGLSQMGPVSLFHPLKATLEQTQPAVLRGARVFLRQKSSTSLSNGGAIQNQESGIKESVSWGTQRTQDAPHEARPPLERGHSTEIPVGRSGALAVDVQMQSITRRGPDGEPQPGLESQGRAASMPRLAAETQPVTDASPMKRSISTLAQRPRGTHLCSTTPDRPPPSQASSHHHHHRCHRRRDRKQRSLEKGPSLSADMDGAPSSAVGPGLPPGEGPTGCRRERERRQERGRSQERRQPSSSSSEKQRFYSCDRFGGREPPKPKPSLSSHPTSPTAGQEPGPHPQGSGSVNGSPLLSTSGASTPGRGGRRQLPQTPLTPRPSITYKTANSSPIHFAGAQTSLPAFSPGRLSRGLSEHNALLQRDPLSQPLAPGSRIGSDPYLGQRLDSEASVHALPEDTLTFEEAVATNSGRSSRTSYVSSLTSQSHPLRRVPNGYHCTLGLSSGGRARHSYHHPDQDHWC
T5 sequence (Q02410 whole entry): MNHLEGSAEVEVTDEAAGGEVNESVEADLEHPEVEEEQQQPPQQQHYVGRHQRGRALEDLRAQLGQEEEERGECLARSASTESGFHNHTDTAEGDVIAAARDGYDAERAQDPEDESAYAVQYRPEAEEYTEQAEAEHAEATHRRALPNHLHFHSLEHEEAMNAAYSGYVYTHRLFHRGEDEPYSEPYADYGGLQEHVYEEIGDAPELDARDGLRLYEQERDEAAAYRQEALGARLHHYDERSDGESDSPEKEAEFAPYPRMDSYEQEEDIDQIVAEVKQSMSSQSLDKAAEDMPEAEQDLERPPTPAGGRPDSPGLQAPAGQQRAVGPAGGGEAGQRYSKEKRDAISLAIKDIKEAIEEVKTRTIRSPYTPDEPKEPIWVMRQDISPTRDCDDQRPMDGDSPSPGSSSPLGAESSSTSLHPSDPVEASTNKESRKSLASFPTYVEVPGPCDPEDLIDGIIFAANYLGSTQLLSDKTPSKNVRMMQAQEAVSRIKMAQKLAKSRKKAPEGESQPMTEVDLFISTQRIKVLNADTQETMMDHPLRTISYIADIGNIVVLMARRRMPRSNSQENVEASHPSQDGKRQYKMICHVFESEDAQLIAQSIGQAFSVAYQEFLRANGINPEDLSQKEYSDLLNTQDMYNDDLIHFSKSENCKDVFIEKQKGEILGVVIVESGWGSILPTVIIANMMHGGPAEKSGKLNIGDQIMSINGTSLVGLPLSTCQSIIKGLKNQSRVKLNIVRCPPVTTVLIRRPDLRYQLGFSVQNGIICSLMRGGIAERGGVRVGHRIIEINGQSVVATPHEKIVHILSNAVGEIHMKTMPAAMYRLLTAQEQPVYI

[7] = molecular target: T6, Streptokinase A (Streptococcus pyogenes serotype M1, UniProt P10520); test: S. pyogenes streptokinase expression inhibitors, potency, dose response, plasminogen activation absorbance, OD405 (AID 1914); format: functional, Streptococcus pyogenes M1 GAS;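 further: secreted streptokinase activity via plasminogen activation per viability signal from cell pellet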
T6 sequence (P10520 whole entry): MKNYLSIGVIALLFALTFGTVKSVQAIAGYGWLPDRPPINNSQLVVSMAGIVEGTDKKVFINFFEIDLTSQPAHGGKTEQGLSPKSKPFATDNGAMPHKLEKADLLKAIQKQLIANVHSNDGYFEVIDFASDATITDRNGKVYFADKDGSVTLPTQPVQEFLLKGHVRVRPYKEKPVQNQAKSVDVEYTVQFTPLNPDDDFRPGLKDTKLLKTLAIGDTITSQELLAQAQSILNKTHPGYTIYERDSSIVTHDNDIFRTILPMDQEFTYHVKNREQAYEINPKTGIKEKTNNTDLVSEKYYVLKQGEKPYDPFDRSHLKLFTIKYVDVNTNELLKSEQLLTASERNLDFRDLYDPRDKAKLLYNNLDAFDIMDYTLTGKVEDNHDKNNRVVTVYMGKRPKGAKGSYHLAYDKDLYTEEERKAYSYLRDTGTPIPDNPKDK

[8] = molecular target: T7, Estrogen receptor (Homo sapiens, UniProt P03372);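 further: potency for inhibiting coactivator peptide recruitment to the receptor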
T7 sequence (P03372 whole entry): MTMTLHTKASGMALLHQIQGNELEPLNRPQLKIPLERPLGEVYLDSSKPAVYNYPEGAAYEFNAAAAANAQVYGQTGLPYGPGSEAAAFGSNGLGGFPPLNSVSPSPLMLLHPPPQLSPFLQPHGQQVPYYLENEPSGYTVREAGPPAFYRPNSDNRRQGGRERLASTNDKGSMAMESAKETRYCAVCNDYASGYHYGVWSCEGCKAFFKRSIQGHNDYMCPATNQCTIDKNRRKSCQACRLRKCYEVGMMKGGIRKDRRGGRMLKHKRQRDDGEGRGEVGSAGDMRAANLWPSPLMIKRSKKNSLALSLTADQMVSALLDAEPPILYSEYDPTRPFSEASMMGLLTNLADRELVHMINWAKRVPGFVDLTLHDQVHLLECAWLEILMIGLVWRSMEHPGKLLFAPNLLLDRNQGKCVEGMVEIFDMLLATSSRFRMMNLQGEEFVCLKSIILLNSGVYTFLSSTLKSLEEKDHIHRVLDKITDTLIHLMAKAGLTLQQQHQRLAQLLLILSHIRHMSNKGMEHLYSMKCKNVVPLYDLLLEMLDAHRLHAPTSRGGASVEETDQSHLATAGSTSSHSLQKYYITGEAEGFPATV

[9] = molecular target: T5, Voltage-gated N-type calcium channel alpha-1B subunit/Amyloid beta A4 precursor protein-binding family A member 1; format: protein assay; remark: listed apart in the source
[10] = test system: Streptococcus; test: Group A Streptococcus viability loss, dose response, counter-screen for streptokinase expression inhibitor project, luminescence, BacTiterGlo (AID 1915); format: functional, organism-based;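 further: potency for reduction of bacterial viability or growth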
[11] = molecular target: Voltage-dependent T-type calcium channel subunit alpha-1H (Homo sapiens, UniProt O95180); format: functional;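 further: channel activity triggered by adding a high calcium stimulation buffer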
[12] = molecular target: T8, Apoptotic protease-activating factor 1 (Homo sapiens, UniProt O14727); format: functional
T8 sequence (O14727 whole entry): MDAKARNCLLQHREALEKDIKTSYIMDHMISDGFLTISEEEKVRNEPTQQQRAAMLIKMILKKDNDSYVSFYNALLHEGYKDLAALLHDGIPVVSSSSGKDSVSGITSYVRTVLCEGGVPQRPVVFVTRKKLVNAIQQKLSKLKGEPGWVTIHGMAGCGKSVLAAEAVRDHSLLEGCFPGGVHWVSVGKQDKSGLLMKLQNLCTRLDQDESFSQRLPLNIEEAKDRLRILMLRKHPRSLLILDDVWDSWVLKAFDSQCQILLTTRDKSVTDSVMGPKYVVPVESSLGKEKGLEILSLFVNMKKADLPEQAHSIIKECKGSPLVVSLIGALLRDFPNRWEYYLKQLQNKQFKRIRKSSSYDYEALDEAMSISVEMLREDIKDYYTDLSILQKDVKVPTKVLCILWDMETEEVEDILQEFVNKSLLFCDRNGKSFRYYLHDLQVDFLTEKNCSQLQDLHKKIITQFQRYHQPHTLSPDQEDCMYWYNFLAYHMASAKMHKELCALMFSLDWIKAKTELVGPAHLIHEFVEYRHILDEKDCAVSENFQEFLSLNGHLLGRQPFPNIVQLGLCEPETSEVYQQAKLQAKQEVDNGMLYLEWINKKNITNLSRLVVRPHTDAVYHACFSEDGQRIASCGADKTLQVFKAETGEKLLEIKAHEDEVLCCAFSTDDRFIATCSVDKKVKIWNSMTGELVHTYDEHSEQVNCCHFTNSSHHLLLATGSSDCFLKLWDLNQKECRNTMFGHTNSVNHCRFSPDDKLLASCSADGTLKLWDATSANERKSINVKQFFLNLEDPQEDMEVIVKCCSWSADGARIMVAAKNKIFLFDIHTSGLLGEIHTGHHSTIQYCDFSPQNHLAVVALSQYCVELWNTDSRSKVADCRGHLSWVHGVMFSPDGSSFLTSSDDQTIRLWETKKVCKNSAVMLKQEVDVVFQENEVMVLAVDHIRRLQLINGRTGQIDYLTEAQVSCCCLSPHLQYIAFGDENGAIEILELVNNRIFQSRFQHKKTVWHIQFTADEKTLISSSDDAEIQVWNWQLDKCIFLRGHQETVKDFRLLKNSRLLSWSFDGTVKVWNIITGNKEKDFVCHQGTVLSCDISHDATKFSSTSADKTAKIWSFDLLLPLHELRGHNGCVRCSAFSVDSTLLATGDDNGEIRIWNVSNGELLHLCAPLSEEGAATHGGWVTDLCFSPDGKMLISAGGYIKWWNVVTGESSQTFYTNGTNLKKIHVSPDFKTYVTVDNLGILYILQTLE

[13] = test system: INS1; test: beta cell apoptosis inhibitors, cytokine rescue, dose response, luminescence, retest (AID 449756); format: functional, cell-based; settings: Rattus norvegicus;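 further: cell death triggered by IL-1 beta plus TNF-alpha plus IFN-gamma mixture; protective hits raise ATP signal compared with cytokine alone wells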
[14] = test system: Vero; test: cells; format: functional; settings: Chlorocebus sabaeus

Row | SMILES | IC50 [1] | IC50 [2] | IC50 [3] | IC50 [4] | EC50 [5] | IC50 [6] | EC50 [7] | IC50 [8] | IC50 [9] | EC50 [10] | EC50 [11] | IC50 [12] | AC50 [13] | CC50 [14]
1 | O=C(Nc1nc2c(Br)cccc2s1)c1ccc2c(c1)OCCO2 | 5.3 µM (active) | 13 µM (active) | 4.5 µM (active) | 2.6 µM (active) |  |  |  |  |  |  |  |  |  | 
2 | C/C(=C\c1ccccc1)c1nc(-c2cccc(C(F)(F)F)c2)no1 | > 99 µM (inactive) | > 99 µM (inactive) | > 99 µM (inactive) | > 99 µM (inactive) |  |  |  |  |  |  |  |  |  | 
3 | CCCCCCc1cc2cc(-c3nnc(-c4ccccc4)o3)c(=O)oc2cc1O |  |  |  |  | 6.12 µM (active) | 9.32 µM (active) | > 150 µM (not active) | 34.9 µM (not active) | > 50 µM (inactive) | 38.7 µM (inconclusive) | 3 µM (active) | 11.7 µM (active) | 7.4 µM (active) | 11.3 µM (active)
